Assay results reported in publication doi:10.1101/2024.07.22.604525v1 (bioRxiv, 2024).
Where two headings read alike, the source gives them in different places. Where a SMILES comes first, the peptide text is derived from it.

Assays:
C57BL/6J male SPF mice = test: Preliminary safety evaluation in mice; type: in vivo; conditions: 10 mg/kg and 100 mg/kg, gavage 3 times per week, 4 weeks, n = 6 mice/group
HFD-fed mice [1] = test: HFD-fed obese mice, VAMP for 1 week; type: in vivo; conditions: HFD 8 weeks, then VAMP 50 mg/kg daily for 1 week, vs vehicle, n = 6
HFD-fed mice [2] = type: in vivo; conditions: 8 weeks
ob/ob mice = test: ob/ob mice, VAMP for 4 weeks; type: in vivo; conditions: VAMP 50 mg/kg daily oral gavage, n = 6
A. muciniphila = type: in vivo; conditions: HFD-fed mice, VAMP 50 mg/kg oral gavage, 8 weeks; colonic contents, 16S rRNA
HFD-induced obese mice = test: HFD-induced obese mice, VAMP and/or benzydamine for 4 weeks; type: in vivo; conditions: HFD 8 weeks, then VAMP 50 mg/kg three times per week for 4 weeks, n = 6
[3] = test system: other strains of Bacteroides; test: Single-strain growth in culture; type: cell-based; conditions: VAMP 50 μM vs PBS, anaerobic, 48 h, OD600 ratio
HFD-fed mice [4] = test: HFD-fed mice, TPH or sitagliptin for 8 weeks; type: in vivo; conditions: sitagliptin 12.5 mg/kg daily oral gavage
[5] = HFD plus VAMP 50 mg/kg daily oral gavage, vs HFD-fed control
[6] = HFD plus VAMP 50 mg/kg daily oral gavage, vs vehicle, n = 6

**Q.** CSCC[C@H](NC(=O)[C@H](C)NC(=O)[C@@H](N)C(C)C)C(=O)N1CCC[C@H]1C(=O)O [VAMP] (H-VAMP-OH; N-terminus and C-terminus assumed) was tested. Which “side effects in mice (body weight, food intake, ALT, AST, UREA, CRE)” value (C57BL/6J male SPF mice) did it give?
**A.** The value was “did not induce any obvious side effects”.

**Q.** And the energy intake (HFD-fed mice [1])?
**A.** The energy intake was “no significant differences”.

**Q.** And the “plasma active GLP-1 level” value (HFD-fed mice [1])?
**A.** Its value is “increased”.

**Q.** And the “plasma total GLP-1 level” value (HFD-fed mice [1])?
**A.** The value was “without altering”.

**Q.** And the “thickness of colonic mucus layer” value (HFD-fed mice [2]; Alcian blue-stained sections, HFD plus VAMP 50 mg/kg)?
**A.** Its value is “increased thickness of mucus layer”.

**Q.** What about the “plasma IL-1β level” value (HFD-fed mice [2]; [5]) of the same compound?
**A.** Its value is “significantly reduced”.

**Q.** And the “plasma TNF-α level” value (HFD-fed mice [2]; [5])?
**A.** Its value is “significantly reduced”.

**Q.** And the “plasma endotoxin (LPS) level” value (HFD-fed mice [2]; [5])?
**A.** The value was “significantly reduced”.

**Q.** And the “fat weight/body weight ratio” value (HFD-fed mice [2]; HFD plus VAMP 50 mg/kg daily oral gavage, vs vehicle)?
**A.** Its value is “significantly decreased”.

**Q.** What about the “size of adipocytes in white adipose tissue” value (HFD-fed mice [2]; HFD plus VAMP 50 mg/kg daily oral gavage, vs vehicle, 3 mice per group) of the same compound?
**A.** The value was “significantly decreased”.

**Q.** And the FBG (HFD-fed mice [2]; [6])?
**A.** Its FBG is “significantly decreased”.

**Q.** And the body weight (HFD-fed mice [2]; [6])?
**A.** Its body weight is “significantly decreased”.

**Q.** And the fasting insulin level (HFD-fed mice [2]; [6])?
**A.** Its fasting insulin level is “decreased fasting insulin levels”.

**Q.** And the “glucose tolerance (OGTT)” value (HFD-fed mice [2]; [6])?
**A.** The value was “improved glucose tolerance”.

**Q.** And the “intestinal active GLP-1 level” value (HFD-fed mice [2]; [6])?
**A.** Its value is “significantly increased”.

**Q.** And the “intestinal total GLP-1 level” value (HFD-fed mice [2]; [6])?
**A.** The value was “without affecting”.

**Q.** And the “plasma active GLP-1 level” value (HFD-fed mice [2]; [6])?
**A.** The value was “significantly increased”.

**Q.** What about the “plasma total GLP-1 level” value (HFD-fed mice [2]; [6]) of the same compound?
**A.** The value was “without affecting”.

**Q.** What about the “expression of intestinal Tjp1, Ocln, Cldn3, and Muc2” value (HFD-fed mice [2]; colonic tissue mRNA, RT-qPCR, HFD plus VAMP 50 mg/kg) of the same compound?
**A.** The value was “upregulate”.

**Q.** And the FBG (ob/ob mice)?
**A.** The FBG was “steadily decreased”.

**Q.** What about the body weight (ob/ob mice) of the same compound?
**A.** Its body weight is “no significant difference”.

**Q.** What about the energy intake (ob/ob mice) of the same compound?
**A.** Its energy intake is “no significant difference”.

**Q.** What about the “intestinal DPP-IV activity” value (ob/ob mice) of the same compound?
**A.** Its value is “suppressed intestinal DPP-IV activity”.

**Q.** And the “intestinal active GLP-1 level” value (ob/ob mice)?
**A.** Its value is “increased the levels”.

**Q.** And the “plasma active GLP-1 level” value (ob/ob mice)?
**A.** The value was “increased the levels”.

**Q.** And the “abundance of Akkermansia (genus level)” value (A. muciniphila)?
**A.** Its value is “significantly increased”.

**Q.** What about the body weight (HFD-induced obese mice) of the same compound?
**A.** Its body weight is “significantly decreased”.

**Q.** What about the “growth of other strains of Bacteroides” value [3] of the same compound?
**A.** The value was “failed to stimulate the growth”.

**Q.** For N[C@@H](CC(=O)N1CCn2c(nnc2C(F)(F)F)C1)Cc1cc(F)c(F)cc1F [sitagliptin, Sitagliptin], which “glucose metabolism in obese mice” value (HFD-fed mice [4]) is on record?
**A.** Its value is “effectively improved glucose metabolism”.
